Source: paper PMC8224453, “A New PqsR Inverse Agonist Potentiates Tobramycin Efficacy to Eradicate Pseudomonas aeruginosa Biofilms” (Advanced Science, 2021)
≈ marks a conversion by molar mass, not a printed value. Read-outs that look alike come from different tables or passages of the source.

Legend:
planktonic PA14 wt = assay: MIC assay, microbroth dilution; assay type: cell-based; settings: Pseudomonas aeruginosa
Method: composed of 15.5 g/L LB agar, 10 g/L peptone, 5 g/L NaCl and 5 g/L yeast extract, the resulting solution was sterilized before being plated.
The minimum inhibitory concentration […] of drug-free SqNPs, compound 4 prepared either in dimethyl sulfoxide (DMSO) or loaded in SqNPs, free Tob, Tob-loaded SqNPs, and Tob and compound 4 co-loaded SqNPs against planktonic PA14 wt were determined by standard microbroth dilution assays in 96-well plates. PA14 wt suspension was prepared from mid-log cultures in PPGAS medium and diluted to OD600 (absorption at 600 nm) 0.02 (2∙10^7 CFU/mL (CFU, colony-forming units)). PBS served as a control. Following 16 h incubation […]
nm) that were measured using a Tecan microplate reader Infinite M200Pro (Tecan, Crailsheim, Germany). The IC90 values are concentrations at which the growth of bacteria is inhibited by 90%. Three independent experiments were conducted in triplicate. Results are […]
Table S2. MIC assay against PA14 wt. Three independent experiments were conducted in triplicate.
Samples MIC (IC90 value) against PA14 wt
Drug-free SqNPs > 200 µg/mL
Compound (4) prepared in DMSO > 20 µM
Compound (4)-loaded SqNPs > 20 µM (a)
Tob loaded SqNPs 3.125 – 6.25 µg/mL (b)
Tob and compound (4) co-loaded SqNPs 3.125 – 6.25 µg/mL (b)
((4) concentration 20 µM)
(a) Compound (4) concentration
4.3. Minimum Biofilm Eradicating Concentration (MBEC) assay
Chemical and biological materials for in vitro assays. All chemicals were purchased from Sigma-Aldrich unless otherwise specified. Yeast extract was obtained from Fluka. Bacto™ Tryptone were obtained from BD Biosciences. Luria Bertani (LB) agar was obtained from Carl Roth. Gibco® PBS was obtained from Life Technologies. Purified water was prepared by a Milli-Q water purification system (Merk Millipore, Billerica, MA). The PA strain PA14

[1] = test system: pyocyanin production in PA14 wt; assay: Pyocyanin assay in PA14 wt; assay type: cell-based; settings: Pseudomonas aeruginosa, PA14, read-out: IC50 pyocyanin
Method: The pyocyanin inhibitory effect of the synthesized compounds and the compound (4) loaded SqNPs on PA14 wt were investigated by pyocyanin assay as described in previous work.[2,5] Briefly, PA14 wt was grown in PPGAS medium, overnight, at 37 °C, shaking at 200 rpm. The bacterial suspension was then centrifuged at 7.450 g, washed twice and diluted to a final OD600 (absorption at 600 nm) of 0.02 (2∙10^7 CFU/mL) in fresh PPGAS. 1.5 mL of the […]
(1 picture or pasted object on this page, not shown here) […]
culture was distributed in each well of the 24 well-plate. The free synthesized QSI prepared in DMSO, compound (4) loaded SqNPs were supplemented to bacteria-containing wells (1:100 dilutions). PA14 wt treated with either PBS or drug-free SqNPs (200 μg/mL) served as controls. Following 16 h incubation under aerobic conditions, pyocyanin in 900 μL of bacteria culture was extracted with chloroform and re-extracted with 0.2 M HCl. Pyocyanin production level was measured as the absorption at 520 nm, which was normalized to cell growth measured as OD600. 0.2 M HCl served as blank samples. Three independent experiments were conducted in triplicate. Non-linear regression analysis was performed using […]
(4) loaded SqNPs on PA14 wt. The pyocyanin inhibitory efficacy was improved by a factor of […]
It is noted that as reported in our prior
Figure S2. The production of pyocyanin levels compared to control PA14 wide type (wt) of the samples treated with 200 μg/mL drug free SqNPs. Three independent experiments were conducted in triplicate. […]
(also on this page, place not known: ( 4) -containing -free bacteria re -extracted compo und ( 4) (IC 50 nM ) (IC 50 nM ). drug P A14 5,6,7,8 -tetradeutero-2-heptyl-4(1H)-quinolone standa rd -40 -20 0 20 40 60 80 100 120 0.005 0.05 0.5 pyo production inhibition [%] Compound concentration loaded SqNPs [µM] IC50 = 100 ± 0.018 [nM])

5-HT2A = molecular target: T1, 5-HT2A (Homo sapiens, UniProt P28223); assay: CEREP off-target panel, agonist radioligand; assay type: binding; settings: @10µM
T1 construct: Eurofins Discovery (SafetyScreen44 Panel, Cerep) P270
Method: (§1) 5. In vitro ADME/T and Safety Pharmacology
(§2) 5.1. CEREP off-targets assay
(§3) Experiments towards possible off-target effects were conducted following Eurofins Discovery protocol. Detailed information about the assays can be found in: https://www.eurofinsdiscoveryservices.com/catalogmanagement/viewitem/SafetyScreen44- […]
(§4) Table S3. Possible CEREP off-targets. entry off-target QSI 4 QSI 17 Assay
(§5) (%binding (%binding method
(§6) (1 picture or pasted object on this page, not shown here)

AR = assay: CEREP off-target panel, agonist radioligand; assay type: binding; settings: @10µM
Method: as §1, §2, §3, §4, §5, §6

5-HT2B = molecular target: T2, 5-HT2B (Homo sapiens, UniProt P41595); assay: CEREP off-target panel, agonist radioligand; assay type: binding; settings: @10µM
T2 construct: Eurofins Discovery (SafetyScreen44 Panel, Cerep) P270
Method: as §1, §2, §3, §4, §5, §6

[2] = Metabolic stability, mouse liver S9; assay type: in vitro ADME
Method: For the evaluation of combined phase I and phase II metabolic stability, the compound (1 μM) was incubated with 1 mg/mL pooled liver S9 fraction from the respective species (Xenotech), […]
2 mM NADPH, 1 mM UDPGA, 10 mM MgCl2, 5 mM GSH and 0.1 mM PAPS at 37 °C for […]
0, 5, 15, 30 or 60 min. The metabolic stability of Testosterone (1 μM) and verapamil (1 μM) […]
were determined in parallel to confirm the enzymatic activity of the S9 fraction. The […]
incubation was stopped by precipitation of S9 enzymes with 2 volumes of cold acetonitrile […]
containing internal standard (750 nM Diphenhydramine). Samples were stored on ice for 10 […]
min and precipitated protein was removed by centrifugation (10 min, 4 °C, 17,000 g).
Concentration of the remaining test compound at the different time points was analyzed by […]
LC-MS/MS (TSQ Quantum Access MAX, Thermo Fisher, Dreieich, Germany) and used to […]
determine half-life (t1/2). Stability of compound 4 in further S9 fractions are summarized in […]
Table S4. Metabolic stability studies in various S9 fractions. […]

[3] = Kinetic turbidimetric solubility assay; assay type: physicochemical; settings: PBS; for solubility kinetic at 5 min: aqueous buffer, kinetic from dmso stock, read-out: Kinetic solubility S kin
Method: 5.4. Kinetic Turbidimetric Solubility Assay
The desired compounds were sequentially diluted in DMSO in a 96-well plate. A 3 µL of each well were transferred into another three 96-well plates, followed by addition of 147 µL of PBS. Plates were shaken for 5 min at 600 rpm at room temperature (r.t.), and the absorbance at 620 nm was measured. Absorbance values were normalized by blank […]
subtraction and plotted using GraphPad Prism 8.4.2 (GraphPad Software, San Diego, CA, […]

[4] = pooled mouse liver S9 fraction, Table 2, read-out: Metabolic stability t 1/2 S9 mouse

T2 sequence (P41595 whole entry): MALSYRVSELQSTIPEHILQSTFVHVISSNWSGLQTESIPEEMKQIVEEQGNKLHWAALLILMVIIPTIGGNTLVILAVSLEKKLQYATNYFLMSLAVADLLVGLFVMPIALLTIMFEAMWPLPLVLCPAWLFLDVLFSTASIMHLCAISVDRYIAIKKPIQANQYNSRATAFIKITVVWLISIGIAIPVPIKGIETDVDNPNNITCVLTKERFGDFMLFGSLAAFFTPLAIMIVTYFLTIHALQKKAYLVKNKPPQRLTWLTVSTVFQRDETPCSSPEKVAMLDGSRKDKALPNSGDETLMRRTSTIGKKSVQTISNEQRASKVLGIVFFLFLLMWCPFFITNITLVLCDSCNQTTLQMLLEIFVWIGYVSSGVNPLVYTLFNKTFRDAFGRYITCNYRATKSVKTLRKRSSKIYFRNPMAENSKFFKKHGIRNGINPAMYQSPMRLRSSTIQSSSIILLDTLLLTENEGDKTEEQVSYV
T1 sequence (P28223 whole entry): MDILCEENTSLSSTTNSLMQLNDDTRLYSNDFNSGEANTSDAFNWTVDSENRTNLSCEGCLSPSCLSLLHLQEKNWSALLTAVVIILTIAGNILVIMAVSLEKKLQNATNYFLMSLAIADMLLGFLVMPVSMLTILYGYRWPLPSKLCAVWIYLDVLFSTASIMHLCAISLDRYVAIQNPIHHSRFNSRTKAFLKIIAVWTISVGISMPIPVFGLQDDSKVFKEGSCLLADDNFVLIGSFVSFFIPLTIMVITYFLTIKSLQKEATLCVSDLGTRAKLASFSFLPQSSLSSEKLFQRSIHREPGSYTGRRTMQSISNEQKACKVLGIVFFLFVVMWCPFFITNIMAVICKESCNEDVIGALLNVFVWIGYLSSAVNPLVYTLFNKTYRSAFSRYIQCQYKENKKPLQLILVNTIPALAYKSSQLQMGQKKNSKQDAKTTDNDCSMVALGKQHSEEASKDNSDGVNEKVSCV

| MIC (planktonic PA14 wt; PA14, Tob concentration, 16 h, read-out: MIC (IC90 value) against PA14 wt) [µg/mL] | MIC (planktonic PA14 wt; PA14 wt, read-out: MIC in the planktonic setting) [µg/mL] | SMILES | IC50 [1] [nM] | % binding, 5-HT2A (5-HT2A) [%] | % binding, AR (AR) [%] | % binding, 5-HT2B (5-HT2B) [%] | half-life at 1 μM [2, 4] [min] | Kinetic solubility S kin [3] [µM] | solubility kinetic at 5 min [3] [µM] | MIC (planktonic PA14 wt; PA14, compound (4) concentration, 16 h, read-out: MIC (IC90 value) against PA14 wt) [µM] | half-life at 1 μM ([2]; pooled liver S9 fraction, Table S4, read-out: t1/2 mouse liver S9) [min] |
| --- | --- | --- | --- | --- | --- | --- | --- | --- | --- | --- | --- |
| 3.12 to 6.25 | 3.12 to 6.25 | NC[C@H]1O[C@H](O[C@H]2[C@H](O)[C@@H](O[C@H]3O[C@H](CO)[C@@H](O)[C@H](N)[C@H]3O)[C@H](N)C[C@@H]2N)[C@H](N)C[C@@H]1O [Tobramycin, tobramycin] |  |  |  |  |  |  |  |  |  |
|  |  | COc1ccc(-n2cc(CNc3ccnc(C(F)(F)F)c3)nn2)cc1Cl [Compound 17] | 350 | 22.02 | 57.04 | 73.79 | 11 | 64.1 | 64 (≈ 24.6 µg/mL) |  |  |
|  |  | FC(F)(F)c1cc(NCc2cn(-c3ccc(Oc4ccccc4)cc3)nn2)ccn1 [Compound 4] | 199 | 65.15 | -10.10 | 55.25 | 29 |  | 7.7 (≈ 3.17 µg/mL) | > 20 | 19.9 ± 7.5 |
